Data taken from US20100041597A1, “PEPTIDES TARGETED TO PROTEIN KINASE C ISOFORMS AND USES THEREOF” (priority 2005, published 2010).
Blank lines part the entries; values can stand above or below the compound they belong to. Where no end group is shown, it is not given here.

Assays:
[1] = test system: LS180 colon cancer tumours; assay: LS180 colon cancer tumours in mice, combination with doxorubicin; assay type: in vivo; settings: mice treated with only doxorubicin (and control cohorts)
Text: Both in vitro and in vivo data support the efficacy of PhGα1 in limiting the effect of multi-drug resistance (MDR) in colorectal drug-resistant tumours when used in combination treatment with chemotherapy. Specifically, studies have shown that establishment of LS180 colon cancer tumours in mice (M1 stage) treated with PhGα1 in combination with an anthracycline chemotherapeutic, doxorubicin, was delayed approximately 100% (p<0.03) versus control cohorts and mice treated with only doxorubicin (28 days compared to 14 days). Results were also observed for tumour transition from the M1 to M2 stage.

PKC-α [2] = molecular target: T1, PKC-α (Homo sapiens, UniProt P17252); assay: In vitro competition with anti-PKC-α antibody, Protocol B (peptide added to cell extract before electrophoresis), IMR-32 cells; assay type: binding; design: subcellular localisation of endogenous PKC-α in IMR-32 cells; endogenous in cells; host or cells: IMR-32
Description: Peptides PRE 3 and PRE 4 (see Table 3) were tested for their ability to interfere with the binding of isoform-specific polyclonal antibodies (Santa Cruz Biotechnology, Inc.) to PKC-α, PKC-βI or PKC-βII using the general protocol described in Example 3.

PKC-β [3] = assay: In vitro competition with anti-PKC-β antibody, Protocol B, IMR-32 cells; assay type: binding, human
Description: (§1) The ability of the peptides PRE 2 and PRE 3 (see Table 3) to interfere with the binding of a PKC-α-specific polyclonal antibody (Santa Cruz Biotechnology, Inc.) to PKC-α was determined using a modified version of the protocol outlined above in which the test peptide was added directly to the cell extract prior to electrophoresis at a concentration of either 5× or 15× the concentration of the protein applied to each well of the gel for the Western blots (20 μg).
(§2) Peptides PRE 2 and PRE 3 (see Table 3) were tested for their ability to interfere with the binding of a PKC-β-specific polyclonal antibody (Santa Cruz Biotechnology, Inc.) to PKC-β using the general protocol described in Example 3.

PKC-ε = assay: In vitro competition with anti-PKC-ε antibody, Protocol B, IMR-32 cells; assay type: binding, human
Description: as §1
Peptides PRE 2, PRE 3 and PRE 4 (see Table 3) were tested for their ability to interfere with the binding of isoform-specific polyclonal antibodies (Santa Cruz Biotechnology, Inc.) to PKC-ε using the general protocol described in Example 3. Two bands, representing alternate splicing variants of PKC-ε, were identified on the Western blot using this anti-PKC-ε antibody.

PKC-α [4] = molecular target: T1, PKC-α; assay: In vitro competition with anti-PKC-α antibody on blotted cell lysate, Protocol A, IMR-32 cells; assay type: binding; design: subcellular localisation of endogenous PKC-α in IMR-32 cells; endogenous in cells; host or cells: IMR-32; settings: Protocol A; for Band Intensity / Inhibition (%) / Relative Intensity (%): IMR-32, Table 4
Description: The ability of the peptides to interfere with the binding of a PKC-α-specific monoclonal antibody to PKC-α was determined using the following protocol.
Cell lysates from either IMR-32 (human neuroblastoma) cells or C6Cx43 cells (rat glioma transfected cells overexpressing connexin 43) were obtained using standard protocols and the proteins of the lysate were separated by SDS PAGE electrophoresis and electrotransferred onto a nitrocellulose membrane. […] A primary polyclonal antibody specific for PKC-α (Santa Cruz Biotechnology, Inc., CA) was then added (15 μg/ml) and the membrane incubated for a further 45 minutes. Finally, the primary antibody was detected with a secondary antibody conjugated to alkaline phosphatase using standard procedures. The intensity of the band corresponding to PKC-α was assessed by scanning and densitometry using the Gel-Pro software (Media Cybernetics) to obtain relative band intensities (average of 3 replicas). Control assays were conducted as described above except that blocking buffer without peptide was used.
The results are expressed as relative band intensity and as a percentage of the intensity of the corresponding band in the control assay (“Relative intensity (%)”). “% inhibition” relates to the percentage of the PKC-α band that is inaccessible to the antibody.

PKC-β [5] = assay: In vitro competition with anti-PKC-β antibody, Protocol A, IMR-32 cells; assay type: binding, human; settings: for Band Intensity / Inhibition (%) / Relative Intensity (%): PKC-β, IMR-32, Table 6
Description: Cell lysates from either IMR-32 (human neuroblastoma) cells or C6Cx43 cells (rat glioma transfected cells overexpressing connexin 43) were obtained using standard protocols and the proteins of the lysate were separated by SDS PAGE electrophoresis and electrotransferred onto a nitrocellulose membrane. The membrane was incubated for 30 minutes in blocking buffer (TBST) containing the test peptide at either 5× or 20× the concentrations of the primary antibody. A primary polyclonal antibody specific for PKC-α (Santa Cruz Biotechnology, Inc., CA) was then added (15 μg/ml) and the membrane incubated for a further 45 minutes. Finally, the primary antibody was detected with a secondary antibody conjugated to alkaline phosphatase using standard procedures. The intensity of the band corresponding to PKC-α was assessed by scanning and densitometry using the Gel-Pro software (Media Cybernetics) to obtain relative band intensities (average of 3 replicas). Control assays were conducted as described above except that blocking buffer without peptide was used.
as §2, with “Peptides PRE 1,” for “Peptides”, “1. […] It is worth noting in this regard that PKC-α and PKC-β belong to the same sub-group of PKCs (cPKCs).” for “3.”

Compound: COc1cccc2c1C(=O)c1c(O)c3c(c(O)c1C2=O)C[C@@](O)(C(=O)CO)C[C@@H]3O[C@H]1C[C@H](N)[C@H](O)[C@H](C)O1 [doxorubicin]
time to establishment of LS180 tumours (M1 stage) [1]: 14 days

Band Intensity (PKC-α [2]; 100 μg, PKC-α, IMR-32, Table 7): 0.0103
Inhibition (%) (PKC-α [2]; 100 μg, PKC-α, IMR-32, Table 7): 99.9%
Relative Intensity (%) (PKC-α [2]; 100 μg, PKC-α, IMR-32, Table 7): 0.135%
Band Intensity (PKC-α [4]; 75 μg peptide): 0.917
Inhibition (%) (PKC-α [4]; 75 μg peptide): 56.1%
Relative Intensity (%) (PKC-α [4]; 75 μg peptide): 43.9%
Band Intensity (PKC-α [4]; 300 μg peptide): 0.192
Inhibition (%) (PKC-α [4]; 300 μg peptide): 90.9%
Relative Intensity (%) (PKC-α [4]; 300 μg peptide): 9.1%
effect on antibody binding to PKC-α (PKC-α [4]): mask the antigenic site of PKC-α
Compound: KDAQNLIGISL-NH2 [PRE 2]
effect on antibody binding to PKC-α (PKC-α [2]): effectively interfered with PKC-α antibody binding to PKC-α
effect on antibody binding to PKC-β (PKC-β [3]): some cross reactivity
Band Intensity (PKC-β [3]; 100 μg, PKC-β, IMR-32, Table 8): 0.0322
Inhibition (%) (PKC-β [3]; 100 μg, PKC-β, IMR-32, Table 8): 54.7%
Relative Intensity (%) (PKC-β [3]; 100 μg, PKC-β, IMR-32, Table 8): 45.3%
effect on antibody binding to PKC-ε (PKC-ε): some cross-reactivity with PKC-ε
effect on antibody binding to PKC-β (PKC-β [5]): some cross reactivity
Band Intensity (PKC-β [5]; 75 μg): 0.800
Inhibition (%) (PKC-β [5]; 75 μg): 31.0%
Relative Intensity (%) (PKC-β [5]; 75 μg): 69.0%
Band Intensity (PKC-β [5]; 300 μg): 0.403
Inhibition (%) (PKC-β [5]; 300 μg): 65.3%
Relative Intensity (%) (PKC-β [5]; 300 μg): 34.7%
